Experiment [1] relates to human myoblasts expressing DUX4. As to the kind of experiment: Caspase-3/7 activation assay in human myoblasts transfected with DUX4, with or without inhibitor. In kind it is cell-based. The note with it: inhibitor added 1.5 hours later, increasing concentrations, caspase assay 48 hours later, FIGS. 6A-B. How it is done: HEK293 cells were transfected with 100 ng plasmid DNA (65,000 cells/well) using Lipofectamine 2000 and assays were performed 48 hours later using the Apo-ONE Homogeneous Caspase-3/7 Assay (Promega). The protocol was followed according to the manufacturer's instructions. Briefly, 100 μl of the reagent was added to each well and the 96-well plate was gently rotated for 20 min. Relative fluorescence was monitored every hour for 4-6 hours. Inhibitor studies were performed in human myoblasts which were transfected with 100 ng of DUX4 DNA (65,000 cells/well) with Lipofectamine 2000. The inhibitors adenosine dialdehyde or salvianolic acid A were added 1.5 hours later and a caspase assay was performed 48 hours later as above. The observation that a DUX4 arginine methylation null mutant protects from cell death and DUX4 interacts with an arginine methyltransferase indicate a role for arginine methylation inhibitors as protective in FSHD disease models. Thus, the global methylation inhibitor, adenosine dialdehyde (AdOx)^17, and the PRMT1 inhibitor, salvianolic acid A (SAA)^18 were tested for their ability to protect against DUX4-mediated cell death. The caspase assay was performed in human myoblasts expressing DUX4 in the presence or absence of AdOx or SAA.

The test system of experiment [2] is DUX4. As to the kind of experiment: DUX4 biomarker and target gene expression in muscle of FSHD mouse model (TIC-DUX4) after IM or IV injection. In kind it is in vivo. How it is done:
SAA and AdOx, or derivatives thereof, as described herein, are each injected into a FSHD mouse model (TIC-DUX4) or any other mouse model of FSHD mice intramuscularly (IM) or intravenously (IV). After 4, 8, 12, 16, 20, and 24 weeks, the ? DUX4, a DUX4 biomarker, such as Wfdc3 or Trim36, and DUX4 target gene expression are measured by qRT-PCR, RNAscope, or ddPCR.

The test system of experiment [3] is DUX4. As to the kind of experiment: DUX4-activated biomarkers and target genes in biopsied muscle of FSHD patients after IM or IV injection. The format is in vivo, human. How it is done:
SAA and AdOx, or derivatives thereof, as described herein, are injected into patients suffering from FSHD intramuscularly (IM) or intravenously (IV). Prior to treatment and after 4, 8, 12, 16, 20, 24, 28, 32, 36 40, 44, 48, and 52 weeks, DUX4-activated biomarkers and/or DUX4 target genes in muscle of the patients are measured in biopsied muscle as described herein.

Regarding `O=C(/C=C/c1ccc(O)c(O)c1/C=C/c1ccc(O)c(O)c1)O[C@H](Cc1ccc(O)c(O)c1)C(=O)O` [SAA, salvianolic acid A], the “caspase cleavage (DUX4-mediated cell death)” value in experiment [1] is reported as “decreased caspase cleavage in a dose-responsive manner”. Moreover, the “DUX4 biomarker expression in muscle (Wfdc3 or Trim36)” value in the experiment with DUX4 [2] (IM or IV, 4-24 weeks, vs untreated mice) is listed as “Reduced levels of DUX4 biomarker expression”. Also, the “expression of DUX4 target genes PRAMEF12, ZSCAN4, TRIM43, LEUTX” value with DUX4 [2] (IM or IV, vs untreated mice) was “decreased expression of DUX4 target genes”. In addition, in the experiment on DUX4 [2] (treated mice), the “muscle strength, morphology, ambulation and motor function” value is “improved muscle strength, morphology, and overall ambulation and motor function”. Moreover, the FSHD disease symptoms result in the experiment on DUX4 [3] is given as “Improvement in FSHD disease symptoms”. Besides, in the experiment with DUX4 [3] (4-52 weeks, vs same patients prior to treatment), the “expression levels of DUX4-activated biomarkers and/or DUX4 target genes in muscle” value was “Reduced expression levels of DUX4-activated biomarkers and/or DUX4 target genes”.
